Measurements taken from patent publication US9993478B2, “1-pyrazolyl-3-(4-((2-anilinopyrimidin-4-yl) oxy) napththalen-1-yl) ureas as P38 MAP knase inhibitors” (Respivert Ltd., priority 2011, dated 2018).

Tested on: d-U937 cells
Assay: Cell viability: MTT assay
Type: cell-based, human
Details: 1 μg/mL
Procedure: Differentiated U937 cells were pre-incubated with each test compound (final concentration 1 μg/mL or 10 μg/mL in 200 μL media indicated below) under two protocols: the first for 4 hr in 5% FCS RPMI1640 media and the second in 10% FCS RPMI1640 media for 24 h. The supernatant was replaced with new media (200 μL) and MTT stock solution (10 μL, 5 mg/mL) was added to each well. After incubation for 1 hr the media were removed, DMSO (200 μL) was added to each well and the plates were shaken lightly for 1 hr prior to reading the absorbance at 550 nm. The percentage loss of cell viability was calculated for each well relative to vehicle (0.5% DMSO) treatment. Consequently an apparent increase in cell viability for drug treatment relative to vehicle is tabulated as a negative percentage.

| SMILES | MTT Assay Cell viability at time point in d-U937 Cells 4 h | MTT Assay Cell viability at time point in d-U937 Cells 24 h |
| --- | --- | --- |
| Cc1ccc(-n2nc(C(C)(C)C)cc2NC(=O)Nc2ccc(Oc3ccnc(Nc4ccc(Cl)cc4)n3)c3ccccc23)cc1 [Example 16, 1-(3-(tert-butyl)-1-(p-tolyl)-1H-pyrazol-5-yl)-3-(4-((2-((4-chlorophenyl)amino)pyrimidin-4-yl)oxy)naphthalen-1-yl)urea] | −ve (−ve and +ve indicate the value is below and above respectively, the no significant effect threshold defined as 30% inhibition at 1 μg/mL at the time point indicated) | −ve (−ve and +ve indicate the value is below and above respectively, the no significant effect threshold defined as 30% inhibition at 1 μg/mL at the time point indicated) |
| Cc1ccc(-n2nc(C(C)(C)C)cc2NC(=O)Nc2ccc(Oc3ccnc(Nc4ccc(C)c(O)c4)n3)c3ccccc23)cc1 [Example 26, 1-(3-(tert-butyl)-1-(p-tolyl)-1H-pyrazol-5-yl)-3-(4-((2-((3-hydroxy-4-methylphenyl)amino)pyrimidin-4-yl)oxy)naphthalen-1-yl)urea] | −ve (−ve and +ve indicate the value is below and above respectively, the no significant effect threshold defined as 30% inhibition at 1 μg/mL at the time point indicated) | −ve (−ve and +ve indicate the value is below and above respectively, the no significant effect threshold defined as 30% inhibition at 1 μg/mL at the time point indicated) |
| Cc1ccc(-n2nc(C(C)(C)C)cc2NC(=O)Nc2ccc(Oc3ccnc(Nc4ccccc4C)n3)c3ccccc23)cc1 [Example 21, 1-(3-(tert-butyl)-1-(p-tolyl)-1H-pyrazol-5-yl)-3-(4-((2-(o-tolylamino)pyrimidin-4-yl)oxy)naphthalen-1-yl)urea] | −ve (−ve and +ve indicate the value is below and above respectively, the no significant effect threshold defined as 30% inhibition at 1 μg/mL at the time point indicated) | −ve (−ve and +ve indicate the value is below and above respectively, the no significant effect threshold defined as 30% inhibition at 1 μg/mL at the time point indicated) |
| COc1cccc(Nc2nccc(Oc3ccc(NC(=O)Nc4cc(C(C)(C)C)nn4-c4ccc(C)cc4)c4ccccc34)n2)c1 [Example 14, 1-(3-(tert-butyl)-1-(p-tolyl)-1H-pyrazol-5-yl)-3-(4-((2-((3-methoxyphenyl)amino)pyrimidin-4-yl)oxy)naphthalen-1-yl)urea] | −ve (−ve and +ve indicate the value is below and above respectively, the no significant effect threshold defined as 30% inhibition at 1 μg/mL at the time point indicated) | −ve (−ve and +ve indicate the value is below and above respectively, the no significant effect threshold defined as 30% inhibition at 1 μg/mL at the time point indicated) |
| Cc1ccc(-n2nc(C(C)(C)C)cc2NC(=O)Nc2ccc(Oc3ccnc(Nc4ccc(O)cc4O)n3)c3ccccc23)cc1 [Example 32, 1-(3-(tert-butyl)-1-(p-tolyl)-1H-pyrazol-5-yl)-3-(4-((2-((2,4-dihydroxyphenyl)amino)pyrimidin-4-yl)oxy)naphthalen-1-yl)urea] | −ve (−ve and +ve indicate the value is below and above respectively, the no significant effect threshold defined as 30% inhibition at 1 μg/mL at the time point indicated) | −ve (−ve and +ve indicate the value is below and above respectively, the no significant effect threshold defined as 30% inhibition at 1 μg/mL at the time point indicated) |
| COc1ccccc1Nc1nccc(Oc2ccc(NC(=O)Nc3cc(C(C)(C)C)nn3-c3ccc(C)cc3)c3ccccc23)n1 [Example 5, 1-(3-(tert-butyl)-1-(p-tolyl)-1H-pyrazol-5-yl)-3-(4-((2-((2-methoxyphenyl)amino)pyrimidin-4-yl)oxy)naphthalen-1-yl)urea] | −ve (−ve and +ve indicate the value is below and above respectively, the no significant effect threshold defined as 30% inhibition at 1 μg/mL at the time point indicated) | −ve (−ve and +ve indicate the value is below and above respectively, the no significant effect threshold defined as 30% inhibition at 1 μg/mL at the time point indicated) |
| Cc1ccc(-n2nc(C(C)(C)C)cc2NC(=O)Nc2ccc(Oc3ccnc(Nc4ccccc4C(C)C)n3)c3ccccc23)cc1 [Example 20, 1-(3-(tert-butyl)-1-(p-tolyl)-1H-pyrazol-5-yl)-3-(4-((2-((2-isopropylphenyl)amino)pyrimidin-4-yl)oxy)naphthalen-1-yl)urea] | −ve (−ve and +ve indicate the value is below and above respectively, the no significant effect threshold defined as 30% inhibition at 1 μg/mL at the time point indicated) | −ve (−ve and +ve indicate the value is below and above respectively, the no significant effect threshold defined as 30% inhibition at 1 μg/mL at the time point indicated) |
| COc1ccc(Nc2nccc(Oc3ccc(NC(=O)Nc4cc(C(C)(C)C)nn4-c4ccc(C)cc4)c4ccccc34)n2)cc1Cl [Example 28, 1-(3-(tert-butyl)-1-(p-tolyl)-1H-pyrazol-5-yl)-3-(4-((2-((3-chloro-4-methoxyphenyl)amino)pyrimidin-4-yl)oxy)naphthalen-1-yl)urea] | −ve (−ve and +ve indicate the value is below and above respectively, the no significant effect threshold defined as 30% inhibition at 1 μg/mL at the time point indicated) | −ve (−ve and +ve indicate the value is below and above respectively, the no significant effect threshold defined as 30% inhibition at 1 μg/mL at the time point indicated) |
| COc1ccc(Nc2nccc(Oc3ccc(NC(=O)Nc4cc(C(C)(C)C)nn4-c4ccc(C)cc4)c4ccccc34)n2)c(OC)c1 [Example 8, 1-(3-(tert-butyl)-1-(p-tolyl)-1H-pyrazol-5-yl)-3-(4-((2-((2,4-dimethoxyphenyl)amino)pyrimidin-4-yl)oxy)naphthalen-1-yl)urea] | −ve (−ve and +ve indicate the value is below and above respectively, the no significant effect threshold defined as 30% inhibition at 1 μg/mL at the time point indicated) | −ve (−ve and +ve indicate the value is below and above respectively, the no significant effect threshold defined as 30% inhibition at 1 μg/mL at the time point indicated) |
| Cc1ccc(-n2nc(C(C)(C)C)cc2NC(=O)Nc2ccc(Oc3ccnc(Nc4ccccc4Cl)n3)c3ccccc23)cc1 [Example 19, 1-(3-(tert-butyl)-1-(p-tolyl)-1H-pyrazol-5-yl)-3-(4-((2-((2-chlorophenyl)amino)pyrimidin-4-yl)oxy)naphthalen-1-yl)urea] | −ve (−ve and +ve indicate the value is below and above respectively, the no significant effect threshold defined as 30% inhibition at 1 μg/mL at the time point indicated) | −ve (−ve and +ve indicate the value is below and above respectively, the no significant effect threshold defined as 30% inhibition at 1 μg/mL at the time point indicated) |
| COc1cc(Nc2nccc(Oc3ccc(NC(=O)Nc4cc(C(C)(C)C)nn4-c4ccc(C)cc4)c4ccccc34)n2)ccc1O [Example 25, 1-(3-(tert-butyl)-1-(p-tolyl)-1H-pyrazol-5-yl)-3-(4-((2-((4-hydroxy-3-methoxyphenyl)amino)pyrimidin-4-yl)oxy)naphthalen-1-yl)urea] | −ve (−ve and +ve indicate the value is below and above respectively, the no significant effect threshold defined as 30% inhibition at 1 μg/mL at the time point indicated) | −ve (−ve and +ve indicate the value is below and above respectively, the no significant effect threshold defined as 30% inhibition at 1 μg/mL at the time point indicated) |
| Cc1ccc(-n2nc(C(C)(C)C)cc2NC(=O)Nc2ccc(Oc3ccnc(Nc4ccccc4Cl)n3)c3ccccc23)cc1 [Example 6, 1-(3-(tert-butyl)-1-(p-tolyl)-1H-pyrazol-5-yl)-3-(4-((2-((2-chlorophenyl)amino)pyrimidin-4-yl)oxy)naphthalen-1-yl)urea] | −ve (−ve and +ve indicate the value is below and above respectively, the no significant effect threshold defined as 30% inhibition at 1 μg/mL at the time point indicated) | −ve (−ve and +ve indicate the value is below and above respectively, the no significant effect threshold defined as 30% inhibition at 1 μg/mL at the time point indicated) |
| Cc1ccc(-n2nc(C(C)(C)C)cc2NC(=O)Nc2ccc(Oc3ccnc(Nc4cccc(Cl)c4)n3)c3ccccc23)cc1 [Example 13, 1-(3-(tert-butyl)-1-(p-tolyl)-1H-pyrazol-5-yl)-3-(4-((2-((3-chlorophenyl)amino)pyrimidin-4-yl)oxy)naphthalen-1-yl)urea] | −ve (−ve and +ve indicate the value is below and above respectively, the no significant effect threshold defined as 30% inhibition at 1 μg/mL at the time point indicated) | −ve (−ve and +ve indicate the value is below and above respectively, the no significant effect threshold defined as 30% inhibition at 1 μg/mL at the time point indicated) |
